Laboratory results: patent US12590864B2, “Wind tunnel for assessment of insecticides” (EAST CAROLINA UNIVERSITY, priority 2023, dated 2026)

How the values were obtained:
Cx. pipiens complex = conditions: five field populations; cited from earlier work
[1] = system: Culex pipiens/quinquefasciatus; assay: CDC bottle bioassay (AI residue); format: in vivo; conditions: 30 min DT; for mortality at the DT: 8 μg/mL residue
Method: (§1) Separate mosquitoes from the same populations used in wind tunnel experiments were also used in bottle bioassays, except for Ae. albopictus, F1, Craven County, NC that were used in wind tunnel but not bottle bioassays due to low sample size. Female mosquitoes (4-5 d old) were aspirated from colony cages, transferred to 500 mL glass Wheaton bottles (N=11-20 mosquitoes in each of three to four replicate bottles), and exposed constantly to technical grade permethrin AI residue (8 μg/mL) (Chem Service, Westchester, Pennsylvania) for a 120 min period using established CDC bottle bioassay methods and mortality was monitored/recorded at 0, 15, 30, 60, and 120 min (CDC 2013, 2019; Richards et al. 2017ab, 2019). Bottle bioassay control groups were transferred to clean bottles following the same established methods (CDC 2013, 2019; Richards et al. 2017ab, 2019). Diagnostic dose and diagnostic time (DT) were determined using susceptible populations of Ae. albopictus and Cx. quinquefasciatus (data not shown).
(§2) Female mosquitoes (4-5 d old) were aspirated from a separate colony cages, transferred to 500 mL glass Wheaton bottles, and exposed to AI residue using established CDC bottle bioassay methods and mortality was monitored/recorded at 15, 30, 60, and 120 min (FIG. 8). Bottle bioassay control groups were transferred to clean bottles following established methods (CDC 2013, 2019). At the 30 min DT for permethrin, Ae. albopictus, F48, Orleans Parish, Ae. albopictus, F0, New Hanover County, and Cx. pipiens quinquefasciatus, F219, Johannesburg were classified as susceptible (100% mortality at the DT); however, Cx. pipiens/quinquefasciatus, F1, New Hanover County (69% mortality) and Cx. pipiens/quinquefasciatus, F1, Pitt County County (57% mortality) were classified as resistant. FIG. 9 is a bar graph of the mortality of types of mosquitoes in the wind tunnel during bioassay exposure to permethrin.

Aedes albopictus = assay: CDC bottle bioassay (AI residue); format: in vivo; conditions: 30 min DT, Ae. albopictus; for mortality at the DT: 8 μg/mL residue
Method: as §1, §2

[2] = Cx. pipiens quinquefasciatus, F219, Johannesburg
[3] = Cx. pipiens/quinquefasciatus, F1, New Hanover County
[4] = Cx. pipiens/quinquefasciatus, F1, Pitt County

Compound | resistance classification (Cx. pipiens complex) | mortality at the DT [1, 2] [%] | mortality at the DT [1, 3] [%] | mortality at the DT [1, 4] [%] | resistance classification [1, 2] | resistance classification [1, 3] | resistance classification [1, 4] | mortality at the DT (Aedes albopictus; F0, New Hanover County) [%] | mortality at the DT (Aedes albopictus; F48, Orleans Parish) [%] | resistance classification (Aedes albopictus; F0, New Hanover County) | resistance classification (Aedes albopictus; F48, Orleans Parish)
CC(C)=CC1C(C(=O)OCc2cccc(Oc3ccccc3)c2)C1(C)C (stereo not drawn) [Sumethrin®, d-phenothrin] | resistant | – | – | – | – | – | – | – | – | – | –
CC1(C)C(C=C(Cl)Cl)C1C(=O)OCc1cccc(Oc2ccccc2)c1 (centres unmarked) [permethrin] | – | 100 | 69 | 57 | susceptible | resistant | resistant | 100 | 100 | susceptible | susceptible
